These results are taken from US20220226369A1, “ETHANOL HARDENER AND USE THEREOF” (priority 2019, published 2022).

Each structure is given as a SMILES string.

Series [1] can be described thus: Viscosity test by capillary viscometer. It is filed as physicochemical. The conditions noted are these: 20° C. The protocol: The viscosity of Examples 1, 5 and 7 and ethanol was measured by a capillary viscometer at an ambient temperature of 20° C. The capillary diameter was 0.5-0.6 mm and the viscometer constant was 0.005085 mm^2/s^2. The time difference of liquid passing through the capillary was recorded.
Viscosity=time difference×viscometer constant

A further series concerns rabbit ear vein. Nature of the series: Embolic effect in rabbit ear vein. The conditions noted are these: 0.1 mL injected, after one-month recovery, India ink. It is filed as in vivo, rabbits. The procedure:
Sixty healthy male rabbits with body weight of 2.5±0.2 kg were selected and divided into 6 groups of 10. The rabbits were anesthetized with a 3% sodium pentobarbital solution by intraperitoneal injection at 0.8 mL/kg. An anticoagulated and disinfected PE-8 catheter (0.20 mm×0.36 mm) was inserted into the distal end of the ear vein, until the end of the catheter reached the midpoint of the ear vein. The in-vitro end of the catheter was connected with a 1-mL syringe through a cannula.
0.1 mL of each of the sclerosing agents of various embodiments with different components was injected at a constant speed through the PE-8 catheter. After 30 seconds, the catheter was slowly and gently withdrawn, and a cotton pad was used for hemostasis. Both left and right ears of the animals were treated with the same procedures. The animals after sclerosing treatment were accommodate in individual cages. After a one-month recovery period, after visual inspection, a normal saline containing India ink was slowly injected at the distal end of the ear vein, so as to observe and record whether the blood vessels were completely embolized. The embolization ratio in each group was recorded (Table 2).

For `CCO` [Ethanol, ethanol], in series [1] (capillary diameter 0.5-0.6 mm), the Time difference was 245 s. For the same compound, the Viscosity in series [1] (viscometer constant 0.005085 mm^2/s^2) was found to be 1.25 mm^2/s. In addition, the “Ratio of completely embolized vessels” value in the series on rabbit ear vein is reported as 60% (12/20).
